In patent publication US20250145592A1 (NICO Therapeutics, Inc., priority 2022, published 2025):
Read-outs that look alike come from different tables or passages of the source.

System: IL-1β secretion in THP-1 cells (NLRP3)
Assay: IL-1β secretion assay in PMA-differentiated THP-1 cells stimulated with LPS and nigericin (ELISA readout)
Format: cell-based
Conditions: IL-1β ELISA
Experimental: Compounds as provided herein were tested in the following assay. Cell culture medium employed contained RPMI 1640 medium (89%), FBS (10%), Pen/Strep (1%), and 2-mercaptoethanol (0.05 mM). Freezing medium was made up of 90% FBS and 10% DMSO. THP-1 cells were removed from the liquid nitrogen and placed into a 37° C. water bath to thaw, until signs of ice dissipated. The cells were then added to 9 mL of warm cell culture medium and centrifuged for 5 minutes at 1000 rpm. The supernatant was discarded, and the cells were resuspended in new cell culture medium. THP-1 cells were then split and cultured in the cell culture medium, being passaged every 2-3 days with the cell density will be maintained between 5×10^5 and 1.5×10^6 viable cells/mL.
To freeze, cells were resuspended with fresh freezing medium, adjusting the cell density to 5×10^6 cells/mL. The cell suspension was partitioned into 1 mL aliquots per vial, and the vials were transferred to a −80° C. freezer. After one day at −80° C., the cell vials were transferred to liquid nitrogen freezer for storage.
PMA was dissolved in DMSO to make a stock solution at 5 mg/ml and stored in 10 μl aliquots at −20° C. for single use. PMA is added to normal growth medium. LPS was diluted with 1 mL of water solution to provide a 1 mg/mL stock solution and stored in 15 μl aliquots at −20° C. for single use. Nigericin is diluted in ice cold 100% ethanol to 5 mg/ml (6.7 mM) and stored in 75 μL aliquots at −20° C. for single use. Serum-free media contains RPMI 1640 medium (99%), Pen/Strep (1%), and 2-mercaptoethanol (0.05 mM). The two control conditions used to qualify and normalize test compound dose-response curves were as follows: High Control=25 ng/mL LPS, […], 0.5% DMSO, Low Control=25 ng/mL, LPS, 0.5% DMSO.
THP-1 cells were diluted to provide a suspension at a concentration of 1.0×10^6 cells/mL with the total volume of suspension required to enable the desired number of assay plates. The growth media was supplemented with PMA (5 ng/mL final concentration) and the cells were incubated at 37° C. under a humidified atmosphere of 5% CO2 for 40 h.
All media was carefully aspirated from each culture flask. The cells were washed carefully with 1×DPBS. The cells were then briefly digested with trypsin LE for 5 minutes at 23° C. and immediately resuspended in cell growth media. After resuspension, the cells were centrifuged at 1000 rpm for 3 minutes and the supernatant was discarded. The cells were resuspended in DPBS and once again centrifuged at 1000 rpm for 5 minutes. The supernatant was discarded and the cell pellet was resuspended in serum-free media supplemented with LPS (25 ng/mL final concentration) to enable the distribution of 30K THP-1 cells within 45 μL of media into each well of 384-well PDL-coated plates. The 384-well plates were then incubated at 37° C. under a humidified atmosphere of 5% CO2 for 2 h. Following this period, test compounds were dispensed by Tecan across the desired concentration range with all wells normalized to a final 0.5% DMSO concentration. The plates were then then incubated at 37° C. under a humidified atmosphere of 5% CO2 for 1 h. Following this period, 5 μL of the 5 mg/mL nigericin stock solution was added to each of the appropriate wells and plates were centrifuged at 1000 rpm for 30 seconds. The plates were the immediately reintroduced to the incubator at 37° C. under a humidified atmosphere of 5% CO2 for 2 h. After this time, 35 μL/well of supernatant was collected and transferred into v-bottom plate and centrifuged at 1000 rpm for 1 minute. These supernatant aliquots were analyzed using an IL-Iβ detection kit as described below. If needed, the test samples could be snap frozen and stored at −80° C. until analyzed.
To prepare each ELISA plate, capture antibody (mAb Mt175) was diluted with PBS to a final concentration of […] and then 20 µL of this solution was added to each well of the ELISA plate.
Each plate was allowed to incubate overnight at 4° C. […]

[1] = Table 3, LPS 25 ng/mL + nigericin, read-out: Activity (IC50 class)
[2] = Table 4, LPS 25 ng/mL + nigericin, read-out: Activity (IC50)
[3] = Homo sapiens, THP-1, Table 3, LPS 25 ng/mL + nigericin, read-out: Activity (IC50 class)
[4] = Homo sapiens, THP-1, Table 4, LPS 25 ng/mL + nigericin, read-out: Activity (IC50)

Row | Compound | IC50 [1] | IC50 [2] | IC50 [3] | IC50 [4]
1 | C[C@]1(O)C[C@@H](NC(=O)Cn2nc(OC3CC4(C3)CC4(F)F)c3cc(Br)ccc3c2=O)C1 (single isomer, unassigned) [Example 20, 2-[6-bromo-4-(2,2-difluorospiro[2.3]hexan-5-yl)oxy-1-oxophthalazin-2-yl]-N-(cis-3-hydroxy-3-methylcyclobutyl)acetamide] | 1000 to 10000 nM | 3400 nM |  | 
2 | O=C(Cn1nc(OCCF)c2cc(Br)ccc2c1=O)Nc1ncc(F)cn1 [Example 47, 2-[6-bromo-4-(2-fluoroethoxy)-1-oxophthalazin-2-yl]-N-(5-fluoropyrimidin-2-yl)acetamide] |  |  | 1000 to 10000 nM | 1400 nM
3 | O=C(Cn1nc(OC2CC2)c2cc(C3(F)CC3)ccc2c1=O)Nc1ncc(F)cn1 [Example 12, 2-[4-cyclopropyloxy-6-(1-fluorocyclopropyl)-1-oxophthalazin-2-yl]-N-(5-fluoropyrimidin-2-yl)acetamide] |  |  | < 1000 nM | 152 nM
4 | O=C(Cn1nc(OC2CC3(CC3)C2)c2cc(Br)ccc2c1=O)Nc1ncc(Cl)cn1 [Example 41, 2-(6-bromo-1-oxo-4-spiro[2.3]hexan-5-yloxyphthalazin-2-yl)-N-(5-chloropyrimidin-2-yl)acetamide] |  |  | < 1000 nM | 52 nM
5 | COC1(C(F)(F)F)CC(Oc2nn(CC(=O)Nc3ncc(F)cn3)c(=O)c3ccc(Br)cc23)C1 (stereo not shown) [Example 43] |  |  | < 1000 nM | 447 nM
6 | O=C(Cn1nc(OC2CC3(C2)CC(F)(F)C3)c2cc(Br)ccc2c1=O)Nc1ncc(F)cn1 [Example 1, 2-[6-bromo-4-(2,2-difluorospiro[3.3]heptan-6-yl)oxy-1-oxophthalazin-2-yl]-N-(5-fluoropyrimidin-2-yl)acetamide] |  |  | < 1000 nM | 10 nM
7 | O=C(Cn1nc(OC2CC3(C2)CC3(F)F)c2cc(Br)ccc2c1=O)Nc1nc2ccccn2n1 (single isomer, unassigned) [Example 25, 2-[6-bromo-4-(2,2-difluorospiro[2.3]hexan-5-yl)oxy-1-oxophthalazin-2-yl]-N-([1,2,4]triazolo[1,5-a]pyridin-2-yl)acetamide] |  | 33 nM | < 1000 nM | 
8 | C[C@@H]1CC1Oc1nn(CC(=O)N[C@H]2C[C@@](C)(O)C2)c(=O)c2ccc(Br)cc12 (single isomer, unassigned) [Example 7, 2-[6-bromo-4-[trans-2-methylcyclopropyl]oxy-1-oxophthalazin-2-yl]-N-(cis-3-hydroxy-3-methylcyclobutyl)acetamide] |  | 84 nM | < 1000 nM | 
9 | O=C(Cn1nc(OC2CC(C(F)(F)F)C2)c2cc(Br)ccc2c1=O)Nc1ncc(F)cn1 (stereo not shown) [Example 42, 2-[6-bromo-1-oxo-4-[3-(trifluoromethyl)cyclobutyl]oxyphthalazin-2-yl]-N-(5-fluoropyrimidin-2-yl)acetamide] |  |  | < 1000 nM | 360 nM
10 | O=C(Cn1nc(OC2CC2)c2cc(Br)ccc2c1=O)Nc1nc2ccccn2n1 [Example 27, 2-(6-bromo-4-cyclopropyloxy-1-oxophthalazin-2-yl)-N-([1,2,4]triazolo[1,5-a]pyridin-2-yl)acetamide] |  |  | < 1000 nM | 235 nM
11 | O=C(Cn1nc(OC2CC(F)(F)C2)c2cc(Br)ccc2c1=O)Nc1ncc(F)cn1 [Example 49, 2-[6-bromo-4-(3,3-difluorocyclobutyl)oxy-1-oxophthalazin-2-yl]-N-(5-fluoropyrimidin-2-yl)acetamide] |  |  | 1000 to 10000 nM | 1510 nM
12 | Cc1cnc(NC(=O)Cn2nc(OC3CC4(CC4)C3)c3cc(Br)ccc3c2=O)nc1 [Example 29, 2-(6-bromo-1-oxo-4-spiro[2.3]hexan-5-yloxyphthalazin-2-yl)-N-(5-methylpyrimidin-2-yl)acetamide] |  |  | < 1000 nM | 26 nM
13 | O=C(Cn1nc(OC2CC3(CC3)C2)c2c(F)c(C3CC3)ccc2c1=O)Nc1ncc(F)cn1 [Example 31, 2-(6-cyclopropyl-5-fluoro-1-oxo-4-spiro[2.3]hexan-5-yloxyphthalazin-2-yl)-N-(5-fluoropyrimidin-2-yl)acetamide] |  |  | < 1000 nM | 66 nM
14 | O=C(Cn1nc(OC2CC3(C2)CC3(F)F)c2cc(Br)ccc2c1=O)Nc1ncc(F)cn1 (single isomer, unassigned) [Example 5, 2-[6-bromo-4-(2,2-difluorospiro[2.3]hexan-5-yl)oxy-1-oxophthalazin-2-yl]-N-(5-fluoropyrimidin-2-yl)acetamide] |  | 21 nM | < 1000 nM | 
15 | Cc1cnc(NC(=O)Cn2nc(OC3CC4(C3)CC4(F)F)c3cc(Br)ccc3c2=O)nc1 (single isomer, unassigned) [Example 21, 2-[6-bromo-4-(2,2-difluorospiro[2.3]hexan-5-yl)oxy-1-oxophthalazin-2-yl]-N-(5-methylpyrimidin-2-yl)acetamide] |  | 31 nM | < 1000 nM | 
16 | O=C(Cn1nc(OC2CC3(C2)CC3(F)F)c2cc(C3(F)CC3)ccc2c1=O)Nc1ncc(F)cn1 (single isomer, unassigned) [Example 14, 2-[4-(2,2-difluorospiro[2.3]hexan-5-yl)oxy-6-(1-fluorocyclopropyl)-1-oxophthalazin-2-yl]-N-(5-fluoropyrimidin-2-yl)acetamide] | < 1000 nM | 314 nM |  | 
17 | O=C(Cn1nc(OC2CC3(CC3)C2)c2cc(Br)ccc2c1=O)Nc1ncc(F)cn1 [Example 4, 2-(6-bromo-1-oxo-4-spiro[2.3]hexan-5-yloxyphthalazin-2-yl)-N-(5-fluoropyrimidin-2-yl)acetamide] |  |  | < 1000 nM | 33 nM
18 | COc1nn(CC(=O)N[C@H]2C[C@@](C)(O)C2)c(=O)c2ccc(Br)cc12 [Example 24, 2-(6-bromo-4-methoxy-1-oxophthalazin-2-yl)-N-(cis-3-hydroxy-3-methylcyclobutyl)acetamide] |  |  | < 1000 nM | 183 nM
19 | Cc1cnc(NC(=O)Cn2nc(OC3C[C@H]3C)c3cc(Br)ccc3c2=O)nc1 (single isomer, unassigned) [Example 10, 2-[6-bromo-4-[trans-2-methylcyclopropyl]oxy-1-oxophthalazin-2-yl]-N-(5-methylpyrimidin-2-yl)acetamide] | < 1000 nM | 141 nM |  | 
20 | CC[C@@H]1CC1Oc1nn(CC(=O)Nc2ncc(F)cn2)c(=O)c2ccc(Br)cc12 (single isomer, unassigned) [Example 36, 2-[6-bromo-4-[cis-2-ethylcyclopropyl]oxy-1-oxophthalazin-2-yl]-N-(5-fluoropyrimidin-2-yl)acetamide] | < 1000 nM | 397 nM |  | 
21 | O=C(Cn1nc(OC2C[C@@H]2F)c2cc(Br)ccc2c1=O)Nc1ncc(F)cn1 (stereo partly drawn) [Example 53, 2-[6-bromo-4-[2-trans-fluorocyclopropyl]oxy-1-oxophthalazin-2-yl]-N-(5-fluoropyrimidin-2-yl)acetamide] |  |  |  | 389 nM
22 | CC[C@@H]1CC1Oc1nn(CC(=O)Nc2ncc(F)cn2)c(=O)c2ccc(Br)cc12 (single isomer, unassigned) [Example 35, 2-[6-bromo-4-[cis-2-ethylcyclopropyl]oxy-1-oxophthalazin-2-yl]-N-(5-fluoropyrimidin-2-yl)acetamide] |  |  | < 1000 nM | 368 nM
